# Measurements published in PubChem BioAssay AID268 (DTP/NCI, 2004).
# Where “and” joins values, the source holds several entries; their conditions need not be identical. Identical values can stand only once.
# Test system: CD2F1 mice, P1798 lymphosarcoma sc, tumor weight T/C
# Test: NCI In Vivo Anticancer Drug Screen. Data for tumor model P1798 Lymphosarcoma (subcutaneous) in CD2F1 (CDF1) mice
# Conditions: endpoint: mean tumor weight, higher = larger tumour
# Experimental: The antitumor activity of compounds was measured in mice bearing transplantable tumors. Survival or tumor size were measured and the results are expressed as the measurement made in the treated group (T) divided by the measurement made in the vehicle treated control group (C). The tumor model used in this assay is P1798 Lymphosarcoma (subcutaneous) in CD2F1 (CDF1) mice
# [1] = dose: 12.5 mg/kg/injection, schedule: Q01DX005 (sc), vehicle: steriod suspending solution
# [2] = dose: 12.5 mg/kg/injection, schedule: Q01DX010 (sc), vehicle: steriod suspending solution
# [3] = dose: 25.0 mg/kg/injection, schedule: Q01DX005 (sc), vehicle: steriod suspending solution
# [4] = dose: 25.0 mg/kg/injection, schedule: Q03DX004 (sc), vehicle: steriod suspending solution
# [5] = dose: 50.0 mg/kg/injection, schedule: Q01DX005 (sc), vehicle: steriod suspending solution
# [6] = dose: 50.0 mg/kg/injection, schedule: Q02DX010 (sc), vehicle: steriod suspending solution
# [7] = dose: 50.0 mg/kg/injection, schedule: Q03DX004 (sc), vehicle: steriod suspending solution
# [8] = dose: 100.0 mg/kg/injection, schedule: Q01DX005 (sc), vehicle: steriod suspending solution
# [9] = dose: 100.0 mg/kg/injection, schedule: Q02DX010 (sc), vehicle: steriod suspending solution
# [10] = dose: 100.0 mg/kg/injection, schedule: Q03DX004 (sc), vehicle: steriod suspending solution
# [11] = dose: 25.0 mg/kg/injection, schedule: Q01DX010 (ip), vehicle: saline
# [12] = dose: 50.0 mg/kg/injection, schedule: Q01DX010 (ip), vehicle: saline
# [13] = dose: 100.0 mg/kg/injection, schedule: Q01DX010 (ip), vehicle: saline
# [14] = dose: 200.0 mg/kg/injection, schedule: Q01DX010 (ip), vehicle: saline
# [15] = dose: 3.13 mg/kg/injection, schedule: Q01DX010 (ip), vehicle: saline
# [16] = dose: 6.25 mg/kg/injection, schedule: Q01DX010 (ip), vehicle: saline
# [17] = dose: 12.5 mg/kg/injection, schedule: Q01DX010 (ip), vehicle: saline
# [18] = dose: 30.0 mg/kg/injection, schedule: Q01DX010 (ip), vehicle: saline
# [19] = dose: 25.0 mg/kg/injection, schedule: Q01DX010 (sc), vehicle: steriod suspending solution
# [20] = dose: 75.0 mg/kg/injection, schedule: Q01DX010 (sc), vehicle: steriod suspending solution
# [21] = dose: 75.0 mg/kg/injection, schedule: Q02DX010 (sc), vehicle: steriod suspending solution
# [22] = dose: 62.5 mg/kg/injection, schedule: Q01DX010 (ip), vehicle: saline
smiles,measurement,setting,value
CC(=O)[C@@]12OC(C)(C)O[C@@H]1C[C@H]1[C@@H]3C[C@H](C)C4=CC(=O)CC[C@]4(C)[C@H]3CC[C@@]12C,T/C,[1],72 % of control
same,T/C,[2],64 % of control
same,T/C,[3],61 % of control
same,T/C,"dose: 25.0 mg/kg/injection, schedule: Q02DX010 (sc), vehicle: steriod suspending solution",95 % of control
same,T/C,[4],56 % of control
same,T/C,[5],38 % of control
same,T/C,[6],88 % of control
same,T/C,[7],59 % of control
same,T/C,[8],13 % of control
same,T/C,[9],93 % of control
same,T/C,[10],16 % of control
CSc1ncnc2nc[nH]c12,T/C,[11],100 % of control and 78 % of control
same,T/C,[12],81 % of control and 86 % of control
same,T/C,[13],94 % of control and 70 % of control
same,T/C,[14],61 % of control and 64 % of control
C[C@H]1C(=O)O[C@@H]2CCN3CC=C(COC(=O)[C@](C)(O)[C@@]1(C)O)[C@H]23,T/C,[15],74 % of control and 79 % of control
same,T/C,[16],77 % of control
same,T/C,[17],62 % of control and 80 % of control
O=C(NCCCCC(NC(=O)c1ccccc1)C(=O)NCCCCCCCCCCNC(=O)C(CCCCNC(=O)c1ccccc1)NC(=O)c1ccccc1)c1ccccc1 (centres undefined),T/C,[17],85 % of control
same,T/C,[11],93 % of control
same,T/C,[12],86 % of control
same,T/C,[13],90 % of control
CO[C@@H]1[C@@H](OC2OC(C)C(OC3CC(C)(O)C(OC(=O)CC(C)C)C(C)O3)C(N(C)C)C2O)[C@@H](CC=O)C[C@@H](C)C(=O)/C=C/C2O[C@H]2C[C@@H](C)OC(=O)C[C@H]1OC(C)=O (some centres undefined),T/C,[12],89 % of control
same,T/C,"dose: 75.0 mg/kg/injection, schedule: Q01DX010 (ip), vehicle: saline",105 % of control
same,T/C,[13],90 % of control
same,T/C,"dose: 150.0 mg/kg/injection, schedule: Q01DX010 (ip), vehicle: saline",90 % of control
same,T/C,[14],95 % of control
same,T/C,"dose: 300.0 mg/kg/injection, schedule: Q01DX010 (ip), vehicle: saline",21 % of control
same,T/C,"dose: 400.0 mg/kg/injection, schedule: Q01DX010 (ip), vehicle: saline",71 % of control
Nc1nncs1,T/C,"dose: 1.88 mg/kg/injection, schedule: Q01DX010 (ip), vehicle: saline",93 % of control
same,T/C,"dose: 3.75 mg/kg/injection, schedule: Q01DX010 (ip), vehicle: saline",68 % of control
same,T/C,"dose: 7.5 mg/kg/injection, schedule: Q01DX010 (ip), vehicle: saline",69 % of control
same,T/C,"dose: 15.0 mg/kg/injection, schedule: Q01DX010 (ip), vehicle: saline",52 % of control and 59 % of control
same,T/C,[18],7 % of control
CC(=O)OCC(=O)[C@@]1(O)CC[C@H]2[C@@H]3CCC4=CC(=O)C=C[C@]4(C)[C@H]3[C@@H](O)C[C@@]21C,T/C,"dose: 2.5 mg/kg/injection, schedule: Q01DX Z (sc), vehicle: steriod suspending solution",92 % of control
same,T/C,"dose: 5.0 mg/kg/injection, schedule: Q01DX010 (sc), vehicle: steriod suspending solution",20 % of control
same,T/C,"dose: 5.0 mg/kg/injection, schedule: Q01DX Z (sc), vehicle: steriod suspending solution",107 % of control
same,T/C,"dose: 10.0 mg/kg/injection, schedule: Q01DX010 (sc), vehicle: steriod suspending solution",4 % of control
same,T/C,"dose: 10.0 mg/kg/injection, schedule: Q01DX Z (sc), vehicle: steriod suspending solution",100 % of control and 88 % of control
same,T/C,"dose: 20.0 mg/kg/injection, schedule: Q01DX010 (sc), vehicle: steriod suspending solution",5 % of control
same,T/C,"dose: 20.0 mg/kg/injection, schedule: Q01DX Z (sc), vehicle: steriod suspending solution",119 % of control
same,T/C,"dose: 40.0 mg/kg/injection, schedule: Q01DX010 (sc), vehicle: steriod suspending solution",5 % of control
same,T/C,"dose: 40.0 mg/kg/injection, schedule: Q01DX Z (sc), vehicle: steriod suspending solution",77 % of control
same,T/C,"dose: 80.0 mg/kg/injection, schedule: Q01DX Z (sc), vehicle: steriod suspending solution",57 % of control
CC(=O)c1ccccc1C,T/C,"dose: 18.0 mg/kg/injection, schedule: Q01DX010 (ip), vehicle: saline",44 % of control
same,T/C,"dose: 27.0 mg/kg/injection, schedule: Q01DX010 (ip), vehicle: saline",42 % of control
same,T/C,"dose: 40.0 mg/kg/injection, schedule: Q01DX010 (ip), vehicle: saline",42 % of control
N#Cc1cn(C2OC(CO)C(O)C2O)c2ncnc(N)c12 (centres undefined),T/C,"dose: 0.06 mg/kg/injection, schedule: Q01DX010 (ip), vehicle: saline",86 % of control
same,T/C,"dose: 0.12 mg/kg/injection, schedule: Q01DX010 (ip), vehicle: saline",61 % of control
same,T/C,"dose: 0.25 mg/kg/injection, schedule: Q01DX010 (ip), vehicle: saline",69 % of control and 76 % of control
same,T/C,"dose: 0.5 mg/kg/injection, schedule: Q01DX010 (ip), vehicle: saline",72 % of control
same,T/C,"dose: 1.0 mg/kg/injection, schedule: Q01DX010 (ip), vehicle: saline",68 % of control
same,T/C,"dose: 2.0 mg/kg/injection, schedule: Q01DX010 (ip), vehicle: saline",62 % of control
C[C@]12C[C@H](O)[C@H]3[C@@H](CCC4=CC(=O)CC[C@@]43C)[C@@H]1CC[C@@H]2C(=O)CO,T/C,[1],88 % of control
same,T/C,[3],97 % of control
same,T/C,[19],91 % of control and 69 % of control
same,T/C,[4],91 % of control
same,T/C,[5],63 % of control
same,T/C,[6],91 % of control
same,T/C,[7],56 % of control
same,T/C,[20],105 % of control
same,T/C,[21],101 % of control
same,T/C,[8],32 % of control
same,T/C,[9],101 % of control
same,T/C,[10],33 % of control
O=c1ccc2ccccc2o1,T/C,"dose: 110.0 mg/kg/injection, schedule: Q01DX011 (ip), vehicle: carboxymethylcellulose (CMC)",69 % of control
same,T/C,"dose: 165.0 mg/kg/injection, schedule: Q01DX011 (ip), vehicle: carboxymethylcellulose (CMC)",54 % of control
CC(=O)[C@H]1CC[C@H]2[C@@H]3C[C@H](C)C4=CC(=O)CC[C@]4(C)[C@H]3C(=O)C[C@]12C,T/C,[1],89 % of control
same,T/C,[2],93 % of control and 95 % of control
same,T/C,[3],62 % of control
same,T/C,[19],92 % of control and 96 % of control
same,T/C,[5],41 % of control
same,T/C,[6],96 % of control
same,T/C,[7],43 % of control
same,T/C,[20],103 % of control
same,T/C,[21],89 % of control
same,T/C,[8],32 % of control
same,T/C,[9],93 % of control
same,T/C,[10],46 % of control
same,T/C,"dose: 200.0 mg/kg/injection, schedule: Q01DX010 (sc), vehicle: steriod suspending solution",22 % of control
CCCNc1ncnc2[nH]ncc12,T/C,[16],92 % of control and 95 % of control
same,T/C,[17],72 % of control
same,T/C,[11],25 % of control
CCOC(C)C(/C=N/NC(N)=S)=NNC(N)=S (centres undefined),T/C,[18],99 % of control
same,T/C,"dose: 60.0 mg/kg/injection, schedule: Q01DX010 (ip), vehicle: saline",100 % of control
same,T/C,"dose: 120.0 mg/kg/injection, schedule: Q01DX010 (ip), vehicle: saline",93 % of control
CCn1cnc2c(=S)nc[nH]c21,T/C,[22],96 % of control and 79 % of control
O=C(O)CCCc1ccc(N(CCCl)CCCl)cc1,T/C,"dose: 1.56 mg/kg/injection, schedule: Q01DX010 (ip), vehicle: saline",69 % of control
same,T/C,[15],31 % of control and 52 % of control
same,T/C,[16],32 % of control and 37 % of control
same,T/C,[17],3 % of control
COC1=C(N)C(=O)c2nc(-c3nc(C(=O)O)c(C)c(-c4ccc(OC)c(OC)c4O)c3N)ccc2C1=O,T/C,"dose: 0.06 mg/kg/injection, schedule: Q01DX010 (ip), vehicle: other",45 % of control
same,T/C,"dose: 0.09 mg/kg/injection, schedule: Q01DX010 (ip), vehicle: other",48 % of control
same,T/C,"dose: 0.13 mg/kg/injection, schedule: Q01DX010 (ip), vehicle: other",43 % of control
same,T/C,"dose: 0.2 mg/kg/injection, schedule: Q01DX010 (ip), vehicle: saline",28 % of control
O=c1cn[nH]c(=O)[nH]1,T/C,[22],111 % of control and 89 % of control
same,T/C,"dose: 125.0 mg/kg/injection, schedule: Q01DX010 (ip), vehicle: saline",97 % of control
same,T/C,"dose: 250.0 mg/kg/injection, schedule: Q01DX010 (ip), vehicle: saline",62 % of control and 80 % of control
same,T/C,"dose: 500.0 mg/kg/injection, schedule: Q01DX010 (ip), vehicle: saline",80 % of control
